Measurements: US9206232B2, “Organic compounds and their uses” (Novartis AG, priority 2009, dated 2015)

Tests used:
[1] = molecular target: HCV NS3-4A serine protease (full-length NS3-4A protein) (Hepatitis C virus genotype 1a (isolate 1) (HCV), UniProt P26664); test: HCV NS3-4A protease assay; assay type: biochemical, HCV genotype 1a; details: genotype 1a strain HCV-1, fluorogenic peptide substrate, read-out: Protease assay Ex. 12 IC50
Description: The inhibitory activity of certain compounds of Table A against HCV NS3-4A serine protease is determined in a homogenous assay using the full-length NS3-4A protein (genotype 1a, strain HCV-1) and a commercially available internally-quenched fluorogenic peptide substrate as described by Taliani, M., et al. 1996 Anal. Biochem. 240:60-67, which is incorporated by reference in its entirety.

HCV = details: ribavirin alone; cited from earlier work

HCV NS3-4A serine protease (full-length NS3-4A protein), sequence (P26664 1027-1657): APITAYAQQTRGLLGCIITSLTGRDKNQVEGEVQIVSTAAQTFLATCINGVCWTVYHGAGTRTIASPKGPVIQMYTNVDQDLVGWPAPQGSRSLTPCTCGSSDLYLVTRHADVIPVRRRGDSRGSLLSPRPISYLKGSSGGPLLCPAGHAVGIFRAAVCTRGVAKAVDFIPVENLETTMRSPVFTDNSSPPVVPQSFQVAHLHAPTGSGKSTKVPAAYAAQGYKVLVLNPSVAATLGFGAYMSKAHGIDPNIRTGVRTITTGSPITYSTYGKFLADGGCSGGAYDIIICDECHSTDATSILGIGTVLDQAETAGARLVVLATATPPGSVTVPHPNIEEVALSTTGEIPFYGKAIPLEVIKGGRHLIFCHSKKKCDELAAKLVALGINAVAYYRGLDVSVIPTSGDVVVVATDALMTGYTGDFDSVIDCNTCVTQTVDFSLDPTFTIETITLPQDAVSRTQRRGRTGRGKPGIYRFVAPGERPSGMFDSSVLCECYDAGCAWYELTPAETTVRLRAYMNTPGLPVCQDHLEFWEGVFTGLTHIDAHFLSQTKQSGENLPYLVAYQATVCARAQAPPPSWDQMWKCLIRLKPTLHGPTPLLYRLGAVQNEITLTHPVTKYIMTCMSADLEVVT
HCV NS3-4A serine protease (full-length NS3-4A protein), sequence (P26664 1658-1711 partner): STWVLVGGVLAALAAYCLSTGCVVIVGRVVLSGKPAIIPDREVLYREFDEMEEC

C=C[C@@H]1C[C@]1(NC(=O)[C@@H]1C[C@@]2(CN1C(=O)[C@@H](NC(=O)[C@@H](NC(=O)[C@@H]1CCCCN1C(C)C)C1CCCCC1)C1CCCC1)C(C)(C)C21CCC1)C(=O)NS(=O)(=O)N1CCCC1 [Example 66, (5R,8S)-7-[(2S)-2-{[(2S)-2-cyclohexyl-2-({[(2S)-1-isopropylpiperidin-2-yl]carbonyl}amino)acetyl]amino}-2-cyclopentylacetyl]-10,10-dimethyl-N-{(1R,2S)-1-[(pyrrolidin-1-ylsulfonyl)carbamoyl]-2-vinylcyclopropyl}-7-azadispiro[3.0.4.1]decane-8-carboxamide]
IC50 [1]: 5.5 nM

[2H]C([2H])([2H])C([2H])(N1CCCC[C@H]1C(=O)NC(C(=O)N[C@H](C(=O)N1C[C@]2(C[C@H]1C(=O)N[C@]1(C(=O)NS(=O)(=O)N3CCCC3)C[C@H]1C=C)C(C)(C)C21CCC1)C(C)(C)C)C1CCCCC1)C([2H])([2H])[2H] (some centres unmarked) [Compound 145]
IC50 [1]: 5.9 nM

C=C[C@@H]1C[C@]1(NC(=O)[C@@H]1C[C@@]2(CN1C(=O)[C@@H](NC(=O)[C@@H](NC(=O)[C@@H]1Cc3[nH]cnc3CN1)C(C)(C)C)C(C)(C)C)C(C)(C)C21CCC1)C(=O)NS(=O)(=O)N1CCCC1 [Example 29, (5R,8S)-7-[(2S)-2-{[(2S)-3,3-dimethyl-2-{[(6S)-4,5,6,7-tetrahydro-1H-imidazo[4,5-c]pyridin-6-ylcarbonyl]amino}butanoyl]amino}-3,3-dimethylbutanoyl]-10,10-dimethyl-N-{(1 R,2S)-1-[(pyrrolidin-1-ylsulfonyl)carbamoyl]-2-vinylcyclopropyl}-7-azadispiro[3.0.4.1]decane-8-carboxamide]
IC50 [1]: 40 nM

NC(=O)c1ncn([C@@H]2O[C@H](CO)[C@@H](O)[C@H]2O)n1 [Ribavirin, ribavirin]
effect on serum levels of HCV-RNA (HCV): does not lower serum levels of HCV-RNA | patients with serum amino transferase levels reduced to normal (HCV): 40 % of patients
